Experimental data: ChEMBL document CHEMBL1201862, “PubChem BioAssay data set” (2004)
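48-hour exposure; five concentrations; linearly interpolated endpoints. GI50 is the concentration that inhibits growth by half.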 The source made the active and inactive calls. No stated cut-off is given here; in the data, active = GI50 up to about 1.1 µM and inactive = higher.

Assays:
Experiment in all cases: NCI anticancer screen, dose series, 48 h
SR = tested on: SR
MOLT-4 = tested on: MOLT-4
OVCAR-4 = tested on: OVCAR-4
CCRF-CEM = tested on: CCRF-CEM
SK-MEL-28 = tested on: SK-MEL-28
KM-20L2 = tested on: KM-20L2
NCI-H460 = tested on: NCI-H460
Malme-3M = tested on: Malme-3M
TK-10 = tested on: TK-10
NCI-H23 = tested on: NCI-H23
HCT-116 = tested on: HCT-116
SK-OV-3 = tested on: SK-OV-3
MDA-MB-231 = tested on: MDA-MB-231
UO-31 = tested on: UO-31
786-0 = tested on: 786-0
SNB-19 = tested on: SNB-19
DLD-1 = tested on: DLD-1
HCC 2998 = tested on: HCC 2998
OVCAR-8 = tested on: OVCAR-8
SF-295 = tested on: SF-295

| Structure (SMILES) | GI50 (SR) | GI50 (MOLT-4) | GI50 (OVCAR-4) | GI50 (CCRF-CEM) | GI50 (SK-MEL-28) | GI50 (KM-20L2) | GI50 (NCI-H460) | GI50 (Malme-3M) | GI50 (TK-10) | GI50 (NCI-H23) | GI50 (HCT-116) | GI50 (SK-OV-3) | GI50 (MDA-MB-231) | GI50 (UO-31) | GI50 (786-0) | GI50 (SNB-19) | GI50 (DLD-1) | GI50 (HCC 2998) | GI50 (OVCAR-8) | GI50 (SF-295) |
| --- | --- | --- | --- | --- | --- | --- | --- | --- | --- | --- | --- | --- | --- | --- | --- | --- | --- | --- | --- | --- |
| CCCCCCN(CCCCCC)C(=S)N/N=C(\C)c1ccccn1 | 0.436 µM (active) | 0.179 µM (active) | 0.457 µM (active) | 0.161 µM (active) | 1.04 µM (active) | 0.673 µM (active) | 1.09 µM (active) | 1.34 µM (inactive) | 0.993 µM (active) | 1.24 µM (inactive) | 1.09 µM (active) | 1.4 µM (inactive) | 1.15 µM (inactive) | 0.344 µM (active) | 0.971 µM (active) | 1.31 µM (inactive) | 1.26 µM (inactive) | 1.61 µM (inactive) | 0.815 µM (active) | 1.53 µM (inactive) |
| C/C(=N/N(C=O)C[n+]1ccccc1)C(CN(CC(C)C)CC(C)C)C(=O)Nc1ccc(C)cc1C (stereo not drawn) | 84.1 µM (inactive) | > 100 µM (inactive) | > 100 µM (inactive) | > 100 µM (inactive) | > 100 µM (inactive) | > 100 µM (inactive) | > 100 µM (inactive) | > 100 µM (inactive) | 42.4 µM (inactive) | > 100 µM (inactive) | > 100 µM (inactive) | > 100 µM (inactive) |  | 25.8 µM (inactive) | > 100 µM (inactive) | 67.9 µM (inactive) | > 100 µM (inactive) | > 100 µM (inactive) | > 100 µM (inactive) | 71.8 µM (inactive) |
| CCCN(CCCC(NC(C)=O)C(=O)NCc1ccccc1)C(=O)N(CCCl)N=O (stereo not drawn) | 0.564 µM (active) | 2.6 µM (inactive) | 37.9 µM (inactive) | 6.87 µM (inactive) | 24.3 µM (inactive) | 15.7 µM (inactive) | 0.27 µM (active) | 22.4 µM (inactive) | 37.8 µM (inactive) | 8.75 µM (inactive) | 22.6 µM (inactive) | 25.7 µM (inactive) | > 100 µM (inactive) | 25.5 µM (inactive) | 0.638 µM (active) | 5.13 µM (inactive) | 14.5 µM (inactive) | 4.4 µM (inactive) | 10.4 µM (inactive) | 2.66 µM (inactive) |
| N/C(=N\O)N/N=C/c1ccc(O)c(O)c1 | > 100 µM (inactive) | > 100 µM (inactive) | > 100 µM (inactive) | > 100 µM (inactive) | > 100 µM (inactive) | > 100 µM (inactive) | > 100 µM (inactive) | > 100 µM (inactive) | > 100 µM (inactive) | > 100 µM (inactive) | > 100 µM (inactive) | > 100 µM (inactive) |  | > 100 µM (inactive) | > 100 µM (inactive) | > 100 µM (inactive) | > 100 µM (inactive) | > 100 µM (inactive) | > 100 µM (inactive) | > 100 µM (inactive) |
